The text below walks through data of patent publication US12064426B2, “Selective inhibitors of ROCK1 and ROCK2 protein kinases and uses thereof” (GENOSCO Inc., priority 2021, dated 2024).

Broadly, the IC50 is the point on the concentration scale where inhibition reaches its midpoint. The EC50 is the concentration needed to bring the measured effect to its halfway point.

In assay [1] the target is T1, Recombinant ROCK1 (amino acids 1-477) (Homo sapiens, UniProt Q13464).
T1 construct: Recombinant ROCK1 (amino acids 1-477); by word order, ROCK1 from Carna Biosciences
The experiment in a line: ROCK inhibition assay, LANCE Ultra TR-FRET kinase assay (ROCK1). The class given is biochemical. The conditions noted are these: 1 μM ATP, 50 nM ULight-CREBtide substrate. Put shortly:
(§1)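 LANCE Ultra TR-FRET kinase assay with recombinant ROCK1 (aa 1-477) or ROCK2 (aa 5-554), 50 nM ULight-CREBtide and ATP at 1 μM (ROCK1) or 4 μM (ROCK2) in HEPES pH 7.5 with MgCl2, 1 h at room temperature. EDTA stop with Eu anti-phospho-CREB Ser133 antibody; 665/615 nm read gives IC50.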
(In general: Time-resolved FRET reads energy transfer from a long-lived donor to a nearby acceptor.)

The subject of assay [2] is ROCK1/2 in A7r5 cells (pMLC2 levels). The experiment in a line: Inhibition of ROCK1/2 in A7r5 cells, cell-based ELISA of phospho-myosin light chain (pMLC2, Thr18/Ser19). The settings on record: Rattus norvegicus, 1.5 h, treated with test compounds for 90 minutes, read-out: pMLC2 (cellular EC50). The procedure: Inhibition of ROCK1/2 in A7r5 cells was measured through cell-based ELISA assay. Rat aortic smooth muscle cell line A7r5 cells were maintained and treated in DMEM medium with 10% fetal bovine serum. Cells were seeded with 5,000 cells/well in 96 well plates for 24 hours and subsequently treated with test compounds for 90 minutes. Cells were then fixed and processed according to the In-Cell ELISA Colrimetric Detection Kit manual (Thermo Scientific). Cellular phospho-myosin light chain (pMLC2, Thr18/Ser19) levels were determined after treatment with DMSO control or a test compound using the In-Cell ELISA kit.
The resulting data was applied to the following formula ‘[1-(compound/DMSO)]×100%’ to calculate the percent inhibition rate. pMLC2 data obtained from 9 points 3-fold serial dilution of compounds were applied to the nonlinear regression curve fit function of the GraphPad Prism software to calculate the cellular EC50 values.
(ELISA stands for enzyme-linked immunosorbent assay.)

Assay [3] deals with T2, Recombinant ROCK2 (amino acids 5-554) (Homo sapiens, UniProt O75116).
T2 construct: ROCK2 (amino acids 5-554); by word order, ROCK2 from SignalChem
The experiment in a line: ROCK inhibition assay, LANCE Ultra TR-FRET kinase assay (ROCK2). The class given is biochemical. The settings on record: 4 μM ATP, 50 nM ULight-CREBtide substrate. The gist of the method:
as §1

Each structure is given as a SMILES string.

T2 sequence (O75116 5-554): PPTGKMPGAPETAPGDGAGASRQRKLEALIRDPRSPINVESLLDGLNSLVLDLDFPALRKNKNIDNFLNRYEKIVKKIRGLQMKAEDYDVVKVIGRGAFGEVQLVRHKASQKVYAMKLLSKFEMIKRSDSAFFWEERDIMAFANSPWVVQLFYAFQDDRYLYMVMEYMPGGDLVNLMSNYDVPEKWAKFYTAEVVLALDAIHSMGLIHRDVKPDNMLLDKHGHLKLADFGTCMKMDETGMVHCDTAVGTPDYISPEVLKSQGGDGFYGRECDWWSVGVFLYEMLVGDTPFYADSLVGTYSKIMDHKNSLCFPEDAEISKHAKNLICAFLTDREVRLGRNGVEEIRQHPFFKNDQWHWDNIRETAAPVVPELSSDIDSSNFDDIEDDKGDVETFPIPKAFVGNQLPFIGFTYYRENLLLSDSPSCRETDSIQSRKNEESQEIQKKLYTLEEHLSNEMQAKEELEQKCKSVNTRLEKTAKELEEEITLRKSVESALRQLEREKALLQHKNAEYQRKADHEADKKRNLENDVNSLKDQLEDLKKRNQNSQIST
T1 sequence (Q13464 1-477): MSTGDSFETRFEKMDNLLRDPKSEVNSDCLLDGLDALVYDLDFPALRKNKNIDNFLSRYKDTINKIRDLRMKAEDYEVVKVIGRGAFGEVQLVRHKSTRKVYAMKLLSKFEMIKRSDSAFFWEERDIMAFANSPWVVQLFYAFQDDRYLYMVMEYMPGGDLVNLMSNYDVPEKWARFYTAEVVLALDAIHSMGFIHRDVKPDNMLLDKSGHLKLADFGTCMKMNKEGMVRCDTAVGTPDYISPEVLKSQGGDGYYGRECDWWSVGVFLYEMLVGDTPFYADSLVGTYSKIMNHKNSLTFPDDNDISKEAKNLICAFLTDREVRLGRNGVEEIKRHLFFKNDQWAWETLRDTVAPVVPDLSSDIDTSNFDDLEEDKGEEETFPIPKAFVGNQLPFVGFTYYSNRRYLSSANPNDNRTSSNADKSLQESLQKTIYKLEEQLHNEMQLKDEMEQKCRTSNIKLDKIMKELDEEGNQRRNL

`Cn1nccc1-c1ccc2c(=O)n(Cc3cccc(C(=O)NC4CCN(CC(F)(F)F)CC4)c3)ccc2c1` [Compound 108]: the IC50 was 11 to 100 nM in assay [1] and under 10 nM in assay [3]. Besides, the EC50 in assay [2] is 101 to 500 nM.

In the case of `Cn1nccc1-c1ccc2c(=O)n(Cc3cc(F)cc(C(=O)N[C@H]4CC[C@@H](O)CC4)c3)ccc2c1` [Compound 165], the IC50 fell in the range of 101 to 500 nM in assay [1] and 10 to 100 nM in assay [3]. Further, in assay [2], the EC50 lay within 501 to 1000 nM.

As for `Cc1n[nH]cc1-c1ccc2c(=O)n(Cc3cccc(C(=O)NCCc4ccccn4)c3)ccc2c1` [Compound 31], the IC50 in assay [1] and in assay [3] was under 10 nM in each case. Moreover, the EC50 in assay [2] is under 100 nM.

With `CNC(=O)c1cccc(Cn2ccc3cc(-c4ccnn4C)ccc3c2=O)c1` [Compound 320], the results for the concentration for half-maximal inhibition (IC50) in assay [1] and in assay [3] were 101 to 500 nM and 10 to 100 nM, respectively. In addition, in assay [2], the EC50 is over 1000 nM.

For the compound `COc1cccc(Cn2ccc3cc(-c4ccnc(N)c4)ccc3c2=O)c1` [Compound 24], the results for the IC50 in assay [1] and in assay [3] were over 501 nM and 10 to 100 nM, respectively. In addition, in assay [2], the EC50 lay within 101 to 500 nM.

Consider `Cc1nocc1-c1ccc2c(=O)n(Cc3cccc(C(=O)NC4COC4)c3)ccc2c1` [Compound 146], for which the results for the 50% inhibitory concentration (IC50) in assay [1] and in assay [3] were 101 to 500 nM and 10 to 100 nM, respectively. Further, in assay [2], the EC50 lay within 501 to 1000 nM.

On to `Cn1nccc1-c1ccc2c(=O)n(Cc3cccc(C(=O)NC4CCN(CC(F)F)CC4)c3)ccc2c1` [Compound 107], for which the IC50 in assay [1] is 11 to 100 nM; in assay [3], under 10 nM. Further, the EC50 in assay [2] lay in the range of 101 to 500 nM.

`Cn1nccc1-c1ccc2c(=O)n(Cc3cccc(O)c3)ccc2c1` [Compound 12]: the IC50 is 11 to 100 nM in assay [1] and under 10 nM in assay [3]. The EC50 in assay [2] lay within 101 to 500 nM.

In the case of `CNC(=O)c1cccc(Cn2ccc3cc(-c4cn[nH]c4C(F)(F)F)ccc3c2=O)c1` [Compound 280], the IC50 in assay [1] is 11 to 100 nM; in assay [3], under 10 nM. For the same compound, the EC50 in assay [2] lay within 501 to 1000 nM.

Consider `Nc1cc(-c2ccc3c(=O)n(Cc4cccc(C(=O)NCc5ccccc5CO)c4)ccc3c2)ccn1` [Compound 184], for which the IC50 in assay [1] was in the range of 101 to 500 nM; in assay [3], 10 to 100 nM. For the same compound, the EC50 in assay [2] is under 100 nM.

As to `CNC(=O)c1cccc(Cn2ccc3cc(-c4ccnc(N)c4)ccc3c2=O)c1` [Compound 326], the 50% inhibitory concentration (IC50) was 11 to 100 nM in assay [1] and under 10 nM in assay [3]. Also, the EC50 in assay [2] lay within 101 to 500 nM.

For the compound `Cn1ccc(NC(=O)c2cccc(Cn3ccc4cc(-c5ccnc(N)c5)ccc4c3=O)c2)n1` [Compound 200], the IC50 in assay [1] was 11 to 100 nM; in assay [3], under 10 nM. The EC50 in assay [2] is under 100 nM.

With `CC(O)c1cn(Cc2cccc(C(=O)NCCc3ccccn3)c2)c(=O)c2ccc(-c3c[nH]nc3Cl)cc12` (stereo not drawn) [Compound 543], the IC50 in assay [1] and in assay [3] was under 10 nM throughout.

Consider `CNC(=O)c1cccc(Cn2cnc3cc(-c4cn[nH]c4C(F)(F)F)ccc3c2=O)c1` [Compound 367], for which the IC50 in assay [1] is 11 to 100 nM; in assay [3] it was under 10 nM.

For `CC(C)NC(=O)c1cc(F)cc(Cn2ccc3cc(-c4c[nH]nc4Cl)ncc3c2=O)c1` [Compound 264], the values for the IC50 in assay [1] and in assay [3] were 11 to 100 nM and under 10 nM, respectively.

Regarding `NCc1ccccc1CNC(=O)c1cccc(Cn2ccc3cc(-c4ccnc(N)c4)ccc3c2=O)c1` [Compound 183], the IC50 in assay [1] was in the range of 101 to 500 nM; in assay [3] it was 10 to 100 nM.

With `CNC(=O)c1cccc(Cn2ccc3cc(-c4cnn(C)c4)ccc3c2=O)c1` [Compound 299], the IC50 is over 501 nM in assay [1] and over 500 nM in assay [3].

As for `CN1CCC(CNC(=O)c2cc(F)cc(Cn3ccc4cc(-c5c[nH]nc5Br)ncc4c3=O)c2)CC1` [Compound 273], the IC50 in assay [1] and in assay [3] was under 10 nM in each case.

As to `C[C@H](c1cccc(C(=O)NC2CC2)c1)n1cnc2cc(-c3cn[nH]c3N)ccc2c1=O` [Compound 521], the IC50 is 11 to 100 nM in assay [1] and under 10 nM in assay [3].

`Cc1n[nH]cc1-c1ccc2c(=O)n(Cc3cccc(C(=O)Nc4cccc(OC(F)(F)F)c4)c3)ccc2c1` [Compound 35]: the IC50 in assay [1] was over 501 nM; in assay [3], 100 to 500 nM.

`CC(c1cccc(O)c1)n1ccc2cc(-c3c[nH]nc3C(F)(F)F)ccc2c1=O` (stereo not drawn) [Compound 8]: the IC50 fell in the range of 101 to 500 nM in assay [1] and 10 to 100 nM in assay [3].

Consider `O=C(NCCc1ccncc1)c1cccc(Cn2cnc3cc(-c4cn[nH]c4C(F)(F)F)ccc3c2=O)c1` [Compound 370], for which the IC50 in assay [1] and in assay [3] was under 10 nM in each case.

Regarding `Cc1n[nH]cc1-c1ccc2c(=O)n(Cc3cccc(C(=O)Nc4ccc(F)nc4)c3)ccc2c1` [Compound 39], the IC50 was in the range of 101 to 500 nM in assay [1] and 10 to 100 nM in assay [3].

As for `COc1cccc([C@@H](CO)N2CNc3cc(-c4ccncc4)ccc3C2=O)c1` [Compound 527], the IC50 in assay [1] was over 501 nM; in assay [3] it was 100 to 500 nM.

As for `Cc1nocc1-c1ccc2c(=O)n(Cc3cc(F)cc(C(=O)NCC4CCN(CC(F)(F)F)CC4)c3)ccc2c1` [Compound 153], the IC50 is 101 to 500 nM in assay [1] and under 10 nM in assay [3].

For `NCC(c1cccc(Cl)c1)n1cnc2cc(-c3ccnc(N)c3)ccc2c1=O` (stereo not drawn) [Compound 493], the figures for the half-inhibitory concentration (IC50) in assay [1] and in assay [3] were 11 to 100 nM and under 10 nM, respectively.

For `Cc1n[nH]cc1-c1ccc2c(=O)n(Cc3cccc(C(=O)Nc4ccccc4OC(F)(F)F)c3)ccc2c1` [Compound 38], the IC50 in assay [1] was over 501 nM; in assay [3] it was 100 to 500 nM.

`O=C(NC1CC1)c1cccc(Cn2ccc3cc(-c4c[nH]nc4C(F)(F)F)ccc3c2=O)c1` [Compound 50]: the results for the IC50 in assay [1] and in assay [3] were 101 to 500 nM and 10 to 100 nM, respectively.

In the case of `Cc1nocc1-c1ccc2c(=O)n(Cc3cccc(C(=O)NC4CCN(C5COC5)CC4)c3)ccc2c1` [Compound 88], the IC50 was in the range of 101 to 500 nM in assay [1] and 10 to 100 nM in assay [3].

As for `CNC(=O)c1cccc([C@@H](C)n2cnc3cc(-c4ccnn4C)ccc3c2=O)c1` [Compound 476], the IC50 is 11 to 100 nM in assay [1] and under 10 nM in assay [3].

`CNC(=O)c1cc(F)cc(Cn2ccc3cc(-c4cn[nH]c4C(F)F)ccc3c2=O)c1` [Compound 289]: the IC50 is 11 to 100 nM in assay [1] and under 10 nM in assay [3].

Turning to `Cn1nccc1-c1cc2ccn(Cc3cc(F)cc(C(=O)NCCc4cccnc4)c3)c(=O)c2cn1` [Compound 271], the IC50 in assay [1] and in assay [3] was under 10 nM in each case.

On to `Nc1cc(-c2ccc3c(=O)n(Cc4cccc(C(=O)Nc5ncc[nH]5)c4)ccc3c2)ccn1` [Compound 199], for which the IC50 in assay [1] was over 501 nM; in assay [3] it was 100 to 500 nM.

In the case of `[2H]C([2H])([2H])NC(=O)c1cc(F)cc([C@@H](C)n2cnc3cc(-c4cn[nH]c4C(F)(F)F)ccc3c2=O)c1` [Compound 455], the IC50 in assay [1] was 11 to 100 nM; in assay [3], under 10 nM.

Consider `O=C(NCc1ccnc(F)c1)c1cccc(Cn2cnc3cc(-c4cn[nH]c4C(F)F)ccc3c2=O)c1` [Compound 397], for which the half-maximal inhibitory concentration (IC50) was 11 to 100 nM in assay [1] and under 10 nM in assay [3].

On to `Nc1cc(-c2ccc3c(=O)n(Cc4cccc(C(=O)NC5COC5)c4)cnc3c2)ccn1` [Compound 434], for which the concentration for half-maximal inhibition (IC50) in assay [1] is 101 to 500 nM; in assay [3], 10 to 100 nM.

For `Nc1cc(-c2ccc3c(=O)n(Cc4cccc(C(=O)Nc5ccc6c(c5)CNCC6)c4)ccc3c2)ccn1` [Compound 187], the half-maximal inhibitory concentration (IC50) is 11 to 100 nM in assay [1] and under 10 nM in assay [3].

For the compound `Nc1cc(-c2ccc3c(=O)n(Cc4cccc(C(=O)N[C@H]5CC[C@@H](O)CC5)c4)ccc3c2)ccn1` [Compound 192], the concentration for half-maximal inhibition (IC50) was in the range of 11 to 100 nM in assay [1] and 10 to 100 nM in assay [3].

For `Cc1nocc1-c1ccc2c(=O)n(Cc3cc(F)cc(C(=O)Nc4ccc5c(c4)CNCC5)c3)ccc2c1` [Compound 160], the IC50 in assay [1] is 11 to 100 nM; in assay [3], under 10 nM.

With `CNC(=O)c1cccc([C@@H](C)n2cnc3cc(-c4conc4C)ncc3c2=O)c1` [Compound 572], the IC50 in assay [1] is 101 to 500 nM; in assay [3], 10 to 100 nM.

As for `C[C@H](c1cccc(C(=O)NCC2CCN(C)CC2)c1)n1cnc2cc(-c3cn[nH]c3C(F)F)ccc2c1=O` [Compound 461], the IC50 in assay [1] and in assay [3] was under 10 nM in each case.

`CC(C)NC(=O)c1cccc(Cn2cnc3cc(-c4cn[nH]c4C(F)(F)F)ccc3c2=O)c1` [Compound 369]: the IC50 was 11 to 100 nM in assay [1] and under 10 nM in assay [3].

With `COc1cccc(Cn2ccc3cc(-c4c[nH]nc4C(F)F)ccc3c2=O)c1` [Compound 13], the values for the IC50 in assay [1] and in assay [3] were 11 to 100 nM and under 10 nM, respectively.

As to `Cn1nccc1-c1ccc2c(=O)n(Cc3cccc(C(=O)NCc4ccc(F)nc4)c3)ccc2c1` [Compound 114], the IC50 was 11 to 100 nM in assay [1] and under 10 nM in assay [3].

Regarding `CNC(=O)c1cccc(Cn2ccc3cc(-c4cn[nH]c4F)ccc3c2=O)c1` [Compound 297], the IC50 was 11 to 100 nM in assay [1] and under 10 nM in assay [3].
